ChEMBL document CHEMBL3991601, “The target landscape of clinical kinase drugs” (Science, 2017)
Activity calls are given as the source filed them. Rule as the data show it, for most assays here: actives have a measured Kd and inactives only a lower limit.

How the values were obtained:
[1] = target: T1, Very long-chain specific acyl-CoA dehydrogenase, mitochondrial (Homo sapiens, UniProt P49748)
T1 sequence (P49748 whole entry): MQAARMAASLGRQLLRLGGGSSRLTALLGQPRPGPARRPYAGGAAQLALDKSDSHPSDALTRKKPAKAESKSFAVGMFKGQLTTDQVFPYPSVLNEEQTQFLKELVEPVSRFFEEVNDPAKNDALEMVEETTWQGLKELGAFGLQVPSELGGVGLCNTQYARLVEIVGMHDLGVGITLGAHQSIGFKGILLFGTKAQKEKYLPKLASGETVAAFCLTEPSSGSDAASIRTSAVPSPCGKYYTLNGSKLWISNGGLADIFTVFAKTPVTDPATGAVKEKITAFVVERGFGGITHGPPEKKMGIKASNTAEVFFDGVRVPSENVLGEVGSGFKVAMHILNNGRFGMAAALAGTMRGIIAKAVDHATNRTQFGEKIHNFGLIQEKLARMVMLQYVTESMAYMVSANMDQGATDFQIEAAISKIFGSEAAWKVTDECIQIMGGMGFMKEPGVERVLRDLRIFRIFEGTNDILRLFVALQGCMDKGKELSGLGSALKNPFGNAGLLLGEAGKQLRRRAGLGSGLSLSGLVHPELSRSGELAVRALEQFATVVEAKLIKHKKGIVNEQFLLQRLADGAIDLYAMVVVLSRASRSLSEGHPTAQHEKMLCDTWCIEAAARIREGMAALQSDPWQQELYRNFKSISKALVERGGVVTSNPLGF

[2] = target: RAC-gamma serine/threonine-protein kinase (Homo sapiens, UniProt Q9Y243)
[3] = target: T2, Breakpoint cluster region protein (Homo sapiens, UniProt P11274)
T2 sequence (P11274 whole entry): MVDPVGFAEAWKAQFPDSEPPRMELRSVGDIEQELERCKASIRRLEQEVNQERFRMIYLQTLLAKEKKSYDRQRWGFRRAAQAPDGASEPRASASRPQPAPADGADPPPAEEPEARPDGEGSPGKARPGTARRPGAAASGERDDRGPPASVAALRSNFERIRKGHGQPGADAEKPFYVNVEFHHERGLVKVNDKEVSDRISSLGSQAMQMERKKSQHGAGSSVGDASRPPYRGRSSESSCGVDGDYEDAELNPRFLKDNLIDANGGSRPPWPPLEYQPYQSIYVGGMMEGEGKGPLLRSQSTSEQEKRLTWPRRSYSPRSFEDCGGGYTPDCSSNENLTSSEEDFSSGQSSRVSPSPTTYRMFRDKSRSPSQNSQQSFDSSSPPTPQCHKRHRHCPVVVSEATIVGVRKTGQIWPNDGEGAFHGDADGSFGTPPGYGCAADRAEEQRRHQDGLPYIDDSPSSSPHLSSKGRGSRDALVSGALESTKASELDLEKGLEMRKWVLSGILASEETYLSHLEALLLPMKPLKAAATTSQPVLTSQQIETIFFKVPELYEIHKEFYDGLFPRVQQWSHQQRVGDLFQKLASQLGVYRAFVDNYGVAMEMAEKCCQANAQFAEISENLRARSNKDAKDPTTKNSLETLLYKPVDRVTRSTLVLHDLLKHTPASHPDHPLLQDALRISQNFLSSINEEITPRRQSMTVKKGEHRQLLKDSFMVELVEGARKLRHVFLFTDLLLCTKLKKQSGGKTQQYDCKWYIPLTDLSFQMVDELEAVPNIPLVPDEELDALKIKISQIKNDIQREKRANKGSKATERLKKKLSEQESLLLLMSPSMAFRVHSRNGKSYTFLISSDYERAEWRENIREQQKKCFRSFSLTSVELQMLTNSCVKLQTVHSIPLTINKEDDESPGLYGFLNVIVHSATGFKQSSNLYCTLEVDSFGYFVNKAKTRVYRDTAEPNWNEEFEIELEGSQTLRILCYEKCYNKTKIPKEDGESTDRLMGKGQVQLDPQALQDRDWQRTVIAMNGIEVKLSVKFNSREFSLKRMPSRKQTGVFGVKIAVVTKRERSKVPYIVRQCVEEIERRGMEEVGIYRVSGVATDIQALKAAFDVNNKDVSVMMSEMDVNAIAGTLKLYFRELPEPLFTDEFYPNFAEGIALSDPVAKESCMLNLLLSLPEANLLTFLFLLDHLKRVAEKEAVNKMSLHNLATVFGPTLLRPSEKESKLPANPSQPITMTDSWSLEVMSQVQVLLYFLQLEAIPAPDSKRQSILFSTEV

[4] = target: Epithelial discoidin domain-containing receptor 1 (Homo sapiens, UniProt Q08345)
[5] = target: Tyrosine-protein kinase HCK (Homo sapiens, UniProt P08631)
[6] = target: Interleukin-1 receptor-associated kinase 1 (Homo sapiens, UniProt P51617)
[7] = target: cAMP-dependent protein kinase catalytic subunit beta (Homo sapiens, UniProt P22694)
[8] = target: Ribosomal protein S6 kinase alpha-3 (Homo sapiens, UniProt P51812)
[9] = target: Serine/threonine-protein kinase 10 (Homo sapiens, UniProt O94804)
[10] = target: TRAF2 and NCK-interacting protein kinase (Homo sapiens, UniProt Q9UKE5)
Also: in the data inactive means no Kd found up to 30 µM.

Serine/threonine-protein kinase 10, sequence (O94804 whole entry): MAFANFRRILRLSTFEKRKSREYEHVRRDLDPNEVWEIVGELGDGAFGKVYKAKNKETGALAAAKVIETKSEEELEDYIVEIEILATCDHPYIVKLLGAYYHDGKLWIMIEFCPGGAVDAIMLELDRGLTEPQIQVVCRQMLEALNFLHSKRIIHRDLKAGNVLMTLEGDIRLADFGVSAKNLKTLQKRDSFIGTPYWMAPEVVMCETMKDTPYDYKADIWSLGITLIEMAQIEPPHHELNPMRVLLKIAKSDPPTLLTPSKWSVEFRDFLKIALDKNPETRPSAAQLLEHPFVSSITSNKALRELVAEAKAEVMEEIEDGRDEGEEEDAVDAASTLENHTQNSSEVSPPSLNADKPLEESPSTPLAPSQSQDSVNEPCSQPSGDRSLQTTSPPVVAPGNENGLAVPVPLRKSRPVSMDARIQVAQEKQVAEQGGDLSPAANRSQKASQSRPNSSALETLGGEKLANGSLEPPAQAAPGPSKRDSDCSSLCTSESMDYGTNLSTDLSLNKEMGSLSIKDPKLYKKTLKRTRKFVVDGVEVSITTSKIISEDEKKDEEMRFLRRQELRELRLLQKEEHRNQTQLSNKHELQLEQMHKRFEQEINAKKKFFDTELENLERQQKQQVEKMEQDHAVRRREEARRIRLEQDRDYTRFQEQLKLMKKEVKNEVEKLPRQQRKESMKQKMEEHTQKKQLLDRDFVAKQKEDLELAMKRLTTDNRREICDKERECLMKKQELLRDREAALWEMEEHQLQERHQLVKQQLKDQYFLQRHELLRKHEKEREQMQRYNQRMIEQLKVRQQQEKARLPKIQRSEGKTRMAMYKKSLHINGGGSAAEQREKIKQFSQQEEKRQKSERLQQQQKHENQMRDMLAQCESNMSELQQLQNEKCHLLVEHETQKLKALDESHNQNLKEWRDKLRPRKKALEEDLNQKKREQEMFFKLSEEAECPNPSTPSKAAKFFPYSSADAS
Epithelial discoidin domain-containing receptor 1, sequence (Q08345 whole entry, the tested form may be a part): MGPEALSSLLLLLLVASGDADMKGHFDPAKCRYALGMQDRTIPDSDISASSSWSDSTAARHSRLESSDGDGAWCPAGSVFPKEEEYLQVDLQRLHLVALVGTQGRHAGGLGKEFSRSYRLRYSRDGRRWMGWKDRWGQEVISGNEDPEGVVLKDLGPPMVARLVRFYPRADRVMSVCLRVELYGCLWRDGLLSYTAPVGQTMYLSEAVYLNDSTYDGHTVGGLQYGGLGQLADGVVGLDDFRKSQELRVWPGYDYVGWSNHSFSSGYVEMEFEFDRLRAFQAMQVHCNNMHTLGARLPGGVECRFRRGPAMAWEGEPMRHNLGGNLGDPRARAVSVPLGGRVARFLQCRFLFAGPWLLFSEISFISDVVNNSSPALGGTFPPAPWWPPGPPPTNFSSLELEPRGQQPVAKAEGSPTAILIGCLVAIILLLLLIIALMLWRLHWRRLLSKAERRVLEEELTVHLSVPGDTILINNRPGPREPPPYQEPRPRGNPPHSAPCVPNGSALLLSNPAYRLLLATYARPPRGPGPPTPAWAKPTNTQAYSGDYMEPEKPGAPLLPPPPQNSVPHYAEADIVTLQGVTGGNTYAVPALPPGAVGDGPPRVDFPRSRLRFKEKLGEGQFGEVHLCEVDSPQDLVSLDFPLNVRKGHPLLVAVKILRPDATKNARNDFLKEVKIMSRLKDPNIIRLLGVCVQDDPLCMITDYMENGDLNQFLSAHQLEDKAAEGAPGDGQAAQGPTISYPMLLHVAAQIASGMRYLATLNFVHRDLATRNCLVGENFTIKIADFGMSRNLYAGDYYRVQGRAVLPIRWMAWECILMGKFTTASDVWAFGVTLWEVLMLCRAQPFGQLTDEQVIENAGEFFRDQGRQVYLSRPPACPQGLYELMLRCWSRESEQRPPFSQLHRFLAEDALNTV
Ribosomal protein S6 kinase alpha-3, sequence (P51812 whole entry): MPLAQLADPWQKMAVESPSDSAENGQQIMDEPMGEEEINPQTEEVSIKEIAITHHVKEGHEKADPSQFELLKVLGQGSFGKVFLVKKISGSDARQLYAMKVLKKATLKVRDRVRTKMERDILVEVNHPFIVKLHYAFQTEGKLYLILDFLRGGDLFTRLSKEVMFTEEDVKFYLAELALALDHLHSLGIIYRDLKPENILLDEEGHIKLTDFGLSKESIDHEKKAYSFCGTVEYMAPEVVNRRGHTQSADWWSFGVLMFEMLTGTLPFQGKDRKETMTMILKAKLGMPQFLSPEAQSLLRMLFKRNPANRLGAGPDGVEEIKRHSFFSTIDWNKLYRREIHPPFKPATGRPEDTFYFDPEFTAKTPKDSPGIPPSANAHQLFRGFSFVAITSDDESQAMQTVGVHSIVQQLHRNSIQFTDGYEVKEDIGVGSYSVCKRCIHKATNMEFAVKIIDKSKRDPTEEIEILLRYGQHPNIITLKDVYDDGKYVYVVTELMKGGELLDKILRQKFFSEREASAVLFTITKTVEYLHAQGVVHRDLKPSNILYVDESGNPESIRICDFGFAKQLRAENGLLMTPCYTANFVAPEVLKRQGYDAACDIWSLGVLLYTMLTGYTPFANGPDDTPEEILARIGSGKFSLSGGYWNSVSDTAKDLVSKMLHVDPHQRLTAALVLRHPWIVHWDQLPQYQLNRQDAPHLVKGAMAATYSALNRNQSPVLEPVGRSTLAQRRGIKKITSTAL
Tyrosine-protein kinase HCK, sequence (P08631 whole entry): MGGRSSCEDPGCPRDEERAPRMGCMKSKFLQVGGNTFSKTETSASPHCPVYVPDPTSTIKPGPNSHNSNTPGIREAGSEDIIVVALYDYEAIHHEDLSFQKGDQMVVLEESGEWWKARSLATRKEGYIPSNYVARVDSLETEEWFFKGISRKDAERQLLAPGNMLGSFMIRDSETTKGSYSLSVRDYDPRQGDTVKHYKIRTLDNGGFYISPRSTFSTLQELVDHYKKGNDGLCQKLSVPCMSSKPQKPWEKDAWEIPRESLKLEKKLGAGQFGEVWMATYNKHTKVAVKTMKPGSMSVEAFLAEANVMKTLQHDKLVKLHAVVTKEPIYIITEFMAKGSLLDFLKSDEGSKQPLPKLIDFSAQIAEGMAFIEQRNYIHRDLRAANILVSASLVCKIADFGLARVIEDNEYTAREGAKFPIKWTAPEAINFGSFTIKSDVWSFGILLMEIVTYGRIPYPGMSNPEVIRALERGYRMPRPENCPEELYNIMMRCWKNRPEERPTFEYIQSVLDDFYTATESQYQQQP
TRAF2 and NCK-interacting protein kinase, sequence (Q9UKE5 whole entry): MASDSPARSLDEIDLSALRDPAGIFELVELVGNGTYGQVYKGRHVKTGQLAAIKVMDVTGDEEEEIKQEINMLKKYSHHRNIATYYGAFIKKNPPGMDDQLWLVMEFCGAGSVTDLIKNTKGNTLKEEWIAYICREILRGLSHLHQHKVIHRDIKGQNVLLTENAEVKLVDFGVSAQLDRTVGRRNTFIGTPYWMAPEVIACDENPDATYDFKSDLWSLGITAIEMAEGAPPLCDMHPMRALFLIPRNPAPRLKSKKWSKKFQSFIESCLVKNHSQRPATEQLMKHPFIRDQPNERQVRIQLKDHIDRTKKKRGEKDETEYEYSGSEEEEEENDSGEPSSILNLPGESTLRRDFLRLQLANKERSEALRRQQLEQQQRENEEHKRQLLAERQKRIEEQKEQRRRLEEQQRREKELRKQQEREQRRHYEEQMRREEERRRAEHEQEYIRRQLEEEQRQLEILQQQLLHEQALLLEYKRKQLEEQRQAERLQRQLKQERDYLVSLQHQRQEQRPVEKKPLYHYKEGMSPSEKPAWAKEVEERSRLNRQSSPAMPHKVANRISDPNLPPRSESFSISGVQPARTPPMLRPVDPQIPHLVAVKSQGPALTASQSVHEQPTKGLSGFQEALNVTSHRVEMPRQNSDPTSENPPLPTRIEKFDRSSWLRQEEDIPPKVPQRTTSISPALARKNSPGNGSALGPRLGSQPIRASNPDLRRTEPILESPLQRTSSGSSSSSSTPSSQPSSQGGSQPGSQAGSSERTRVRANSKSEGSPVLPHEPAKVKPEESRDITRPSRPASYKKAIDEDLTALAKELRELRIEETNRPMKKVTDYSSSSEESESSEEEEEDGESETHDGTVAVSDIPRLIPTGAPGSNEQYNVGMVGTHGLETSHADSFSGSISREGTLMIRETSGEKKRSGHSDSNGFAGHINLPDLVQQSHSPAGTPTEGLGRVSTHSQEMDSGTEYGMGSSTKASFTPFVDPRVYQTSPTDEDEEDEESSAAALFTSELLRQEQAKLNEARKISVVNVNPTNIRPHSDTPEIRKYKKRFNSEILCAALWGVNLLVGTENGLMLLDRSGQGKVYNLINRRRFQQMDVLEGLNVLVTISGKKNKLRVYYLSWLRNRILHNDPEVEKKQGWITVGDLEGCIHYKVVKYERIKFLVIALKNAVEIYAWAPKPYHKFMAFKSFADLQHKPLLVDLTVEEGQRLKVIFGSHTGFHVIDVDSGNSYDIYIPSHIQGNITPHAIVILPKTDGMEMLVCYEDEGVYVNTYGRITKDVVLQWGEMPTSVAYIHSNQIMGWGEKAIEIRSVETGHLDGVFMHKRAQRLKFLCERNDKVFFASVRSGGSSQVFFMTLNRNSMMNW
RAC-gamma serine/threonine-protein kinase, sequence (Q9Y243 whole entry): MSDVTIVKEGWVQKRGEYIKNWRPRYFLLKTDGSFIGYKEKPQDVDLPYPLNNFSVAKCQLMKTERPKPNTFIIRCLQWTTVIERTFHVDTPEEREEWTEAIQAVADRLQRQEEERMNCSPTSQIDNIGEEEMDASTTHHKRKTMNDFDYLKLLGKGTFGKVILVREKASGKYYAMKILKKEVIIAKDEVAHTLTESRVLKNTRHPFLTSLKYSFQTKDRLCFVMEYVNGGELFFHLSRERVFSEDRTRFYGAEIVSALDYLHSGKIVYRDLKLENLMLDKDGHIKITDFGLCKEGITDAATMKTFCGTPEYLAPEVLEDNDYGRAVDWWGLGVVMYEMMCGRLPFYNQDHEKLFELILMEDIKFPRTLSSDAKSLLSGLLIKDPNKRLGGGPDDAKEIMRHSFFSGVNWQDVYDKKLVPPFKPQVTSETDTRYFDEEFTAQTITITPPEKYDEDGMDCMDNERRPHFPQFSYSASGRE

Row | Kd [1] | Kd [2] | Kd [3] | Kd [4] | Kd [5] | Kd [6] | Kd [7] | Kd [8] | Kd [9] | Kd [10] | Structure (SMILES)
1 | > 30 µM (inactive) | > 30 µM (inactive) | > 30 µM (inactive) | > 30 µM (inactive) | > 30 µM (inactive) | > 30 µM (inactive) | > 30 µM (inactive) | > 30 µM (inactive) | > 30 µM (inactive) | > 30 µM (inactive) | O=c1[nH]c([C@@H]2CCCN2)nc2c1oc1ccc(Cl)cc12
2 | > 30 µM (inactive) | > 30 µM (inactive) | > 30 µM (inactive) | > 30 µM (inactive) | > 30 µM (inactive) | 0.126 µM (active) | > 30 µM (inactive) | > 30 µM (inactive) | 2.47 µM (active) | > 30 µM (inactive) | CCN1CCN(Cc2ccc(Nc3ncc(F)c(-c4cc(F)c5nc(C)n(C(C)C)c5c4)n3)nc2)CC1 [ABEMACICLIB]
3 | > 30 µM (inactive) | > 30 µM (inactive) | > 30 µM (inactive) | > 30 µM (inactive) | > 30 µM (inactive) | > 30 µM (inactive) | > 30 µM (inactive) | > 30 µM (inactive) | > 30 µM (inactive) | > 30 µM (inactive) | CCc1cc2c(cc1N1CCC(N3CCOCC3)CC1)C(C)(C)c1[nH]c3cc(C#N)ccc3c1C2=O [ALECTINIB]
4 | > 30 µM (inactive) | > 30 µM (inactive) | > 30 µM (inactive) | > 30 µM (inactive) | > 30 µM (inactive) | > 30 µM (inactive) | > 30 µM (inactive) | > 30 µM (inactive) | > 30 µM (inactive) | > 30 µM (inactive) | COc1ccc2c(OCc3nnc4ccc(-c5ccccc5)nn34)ccnc2c1 [AMG-208]
5 | > 30 µM (inactive) | > 30 µM (inactive) | > 30 µM (inactive) | > 30 µM (inactive) | > 30 µM (inactive) | > 30 µM (inactive) | > 30 µM (inactive) | > 30 µM (inactive) | > 30 µM (inactive) | > 30 µM (inactive) | S=C(NCc1ccc2c(c1)OCO2)N1CCN(c2ncnc3c2oc2ccccc23)CC1 [AMUVATINIB]
6 | > 30 µM (inactive) | > 30 µM (inactive) | > 30 µM (inactive) | > 30 µM (inactive) | > 30 µM (inactive) | > 30 µM (inactive) | > 30 µM (inactive) | > 30 µM (inactive) | 0.728 µM (active) | > 30 µM (inactive) | Cc1cc(Nc2nc(N[C@@H](C)c3ncc(F)cn3)ncc2Cl)n[nH]1 [AZD-1480]
7 | > 30 µM (inactive) | > 30 µM (inactive) | > 30 µM (inactive) | > 30 µM (inactive) | 0.712 µM (active) | > 30 µM (inactive) | 1.21 µM (active) | > 30 µM (inactive) | 1.28 µM (active) | > 30 µM (inactive) | COc1cccc(Nc2ncnn3ccc(CN4CC[C@@H](N)[C@H](O)C4)c23)c1 [BMS-690514]
8 | > 30 µM (inactive) | > 30 µM (inactive) | 0.342 µM (active) | 0.209 µM (active) | 1.1 µM (active) | > 30 µM (inactive) | > 30 µM (inactive) | > 30 µM (inactive) | > 30 µM (inactive) | > 30 µM (inactive) | COc1cc2nccc(Oc3ccc(NC(=O)C4(C(=O)Nc5ccc(F)cc5)CC4)cc3)c2cc1OC [CABOZANTINIB]
9 |  | > 30 µM (inactive) | > 30 µM (inactive) | > 30 µM (inactive) | > 30 µM (inactive) | > 30 µM (inactive) | > 30 µM (inactive) | > 30 µM (inactive) | > 30 µM (inactive) | 2.34 µM (active) | c1cc(OCCN2CCCCC2)cc(-c2n[nH]c3ccc(-c4nc[nH]n4)cc23)c1 [CC-401]
10 | > 30 µM (inactive) | > 30 µM (inactive) | > 30 µM (inactive) | > 30 µM (inactive) | > 30 µM (inactive) | > 30 µM (inactive) | > 30 µM (inactive) | > 30 µM (inactive) | > 30 µM (inactive) | > 30 µM (inactive) | COc1cc2ncnc(Nc3ccc(F)c(Cl)c3)c2cc1NC(=O)/C=C/CN1CCCCC1 [DACOMITINIB ANHYDROUS]
11 | > 30 µM (inactive) | > 30 µM (inactive) | > 30 µM (inactive) | > 30 µM (inactive) | > 30 µM (inactive) | > 30 µM (inactive) | > 30 µM (inactive) | > 30 µM (inactive) | 0.071 µM (active) | > 30 µM (inactive) | CC[C@@](C)(Nc1ccnc(-c2c[nH]c3ncccc23)n1)C(=O)NCC(F)(F)F [DECERNOTINIB]
12 | > 30 µM (inactive) | > 30 µM (inactive) | > 30 µM (inactive) | > 30 µM (inactive) | > 30 µM (inactive) | > 30 µM (inactive) | > 30 µM (inactive) | > 30 µM (inactive) | > 30 µM (inactive) | > 30 µM (inactive) | COc1cc(Nc2ncc(F)c(Nc3ccc4c(n3)N(COP(=O)(O)O)C(=O)C(C)(C)O4)n2)cc(OC)c1OC [FOSTAMATINIB]

Row | Structure (SMILES) | Kd [1] | Kd [2] | Kd [3] | Kd [4] | Kd [5] | Kd [6] | Kd [7] | Kd [8] | Kd [9] | Kd [10]
13 | Cn1cc(-c2[nH]c3cc(NC(=O)[C@H](N)C4CCCCC4)cc4c3c2C=NNC4=O)cn1 | > 30 µM (inactive) | > 30 µM (inactive) | 1.11 µM (active) | > 30 µM (inactive) | 0.436 µM (active) | > 30 µM (inactive) | > 30 µM (inactive) | > 30 µM (inactive) | > 30 µM (inactive) | 0.251 µM
14 | Cc1c(NC(=O)OC[C@@H]2COCCN2)cn2ncnc(Nc3ccc4c(cnn4Cc4cccc(F)c4)c3)c12 [AC-480] | > 30 µM (inactive) | > 30 µM (inactive) | > 30 µM (inactive) | > 30 µM (inactive) | > 30 µM (inactive) | > 30 µM (inactive) | > 30 µM (inactive) | > 30 µM (inactive) | > 30 µM (inactive) | > 30 µM (inactive)
15 | CNC(=O)c1ccc(Nc2ncc(C(F)(F)F)c(NCc3nccnc3N(C)S(C)(=O)=O)n2)cc1 [DEFACTINIB] | > 30 µM (inactive) | > 30 µM (inactive) | > 30 µM (inactive) | > 30 µM (inactive) | > 30 µM (inactive) | > 30 µM (inactive) | > 30 µM (inactive) | > 30 µM (inactive) | > 30 µM (inactive) | > 30 µM (inactive)
16 | CCc1nc(C(N)=O)c(Nc2ccc(N3CCC(N4CCN(C)CC4)CC3)c(OC)c2)nc1NC1CCOCC1 [GILTERITINIB] | > 30 µM (inactive) | > 30 µM (inactive) | > 30 µM (inactive) | > 30 µM (inactive) | 1.59 µM (active) | > 30 µM (inactive) | > 30 µM (inactive) | 2.66 µM (active) | 0.149 µM (active) | > 30 µM (inactive)
